Assay results as given in paper PMC10279527, “Structural basis of metabolite transport by the chloroplast outer envelope channel OEP21” (Nature Structural & Molecular Biology, 2023).
Where “and” joins values, the source holds several entries; their conditions need not be identical. Equal values may be shown once. Read-outs that look alike come from different tables or passages of the source.

Assays:
OEP21 wt [1] = target: T1, OEP21 wt (Pisum sativum, UniProt Q9SM57); experiment: SEC metabolite translocation assay with OEP21 WT proteoliposomes;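 as to all read-outs here: control is liposomes reconstituted without protein, prepared alongside. Molecule content inside liposomes measured after Triton X-100 disruption. PD10 SEC runs done with or without ATP and/or MgCl2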; type: biochemical, garden pea; conditions: for Relative content (% of mean Control): Fig. 4f, WT proteoliposomes, molecules of increasing molecular weight; for passage through the OEP21 channel (in words): proteoliposomes, SEC, deadtime ~4 min
T1 construct: made in house

OEP21 [2] = target: T2, OEP21 (Pisum sativum, UniProt Q9SM57); experiment: CD-detected thermal melting of OEP21 in presence of metabolites; type: binding, garden pea; design: made in house; conditions: for Melting point: ED Fig. 4a, OEP21 with 0.5 mM metabolite, CD at 215 nm, Apo 58.5; for raw CD / rel CD: 500 uM
OEP21 [3] = target: T2, OEP21; experiment: Isothermal titration calorimetry (ITC) of OEP21 with metabolites; type: binding, garden pea; design: made in house; conditions: for fold increase in Kd: individual determination KD1; for fold increase in Kd / fold increase in Kd, mean values: relative to ATP pH7; for binding affinity for OEP21 (in words): ITC or FP
OEP21 [4] = target: T2, OEP21; experiment: Amide hydrogen exchange NMR (CLEANEX) of OEP21 L5; design: made in house; species or system garden pea; conditions: 2 mM ATP or 5 mM GAP; 303 K, pH 6.0
OEP21 [5] = target: T2, OEP21; experiment: Trypsin cleavage of recombinant OEP21 in liposomes; design: made in house; species or system garden pea; conditions: 10 µM OEP21 in liposomes; 5 mM metabolite
Method: Sample aliquots were quenched by addition of 1 mM PMSF at the indicated time points and were analyzed by SDS–PAGE.

OEP21 wt [6] = target: T1, OEP21 wt; experiment: Fluorescence polarization (FP) binding of MANT-ATP (or MANT-GMPPNP) to OEP21-WT, also at varied NaCl and MgCl2; design: species or system garden pea; conditions: FP
Method: (§1) FP assays were performed on a spectrofluorometer FP-8300 (Jasco) equipped with a water bath cooling system MCM-100 (Jasco). […] A buffer containing no EDTA was used when MgCl2 was present. […] KD values were derived by fitting the data to a one-site binding model. […] All FP experiments were performed as triplicates.

[7] = test system: OEP21 variants (single point mutations, ΔL5); experiment: Fluorescence polarization binding of MANT-ATP to OEP21 variants;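 also: KD obtained by fitting fluorescence polarization data to a one-site binding model, each experiment run in triplicate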; design: species or system garden pea; conditions: FP with MANT-ATP, Fig. 3e; 14 point variants and ΔL5
[8] = ITC of ATP, GAP or phosphate with magnesium; type: binding; conditions: 10 mM HEPES pH7.0, 20 mM NaCl, read-out: KD for Mg^2+
Method: ITC experiments were performed with a MicroCal PEAQ-ITC instrument (Malvern Panalytical) at 25 °C in 10 mM HEPES pH 7.0, 20 mM NaCl, 0.5 mM EDTA, 1 mM DTT, 50 mM LDAO. […] Curve fitting and data analysis were done with the Malvern PEAQ-ITC software.
(a) (left) 2D-[^15N,^1H]-TROSY NMR spectra of 400 µM ^2H,^15N-labeled OmpX in LDAO micelles in 20 mM sodium phosphate, pH6.0, 50 mM NaCl, 0.5 mM EDTA and the indicated concentrations of D-GAP at 30 °C and 1.2 GHz magnetic field. (right) 2D-projections along the ^1H dimension of the 2D-spectra shown on (left). […] (right) Relative NMR peak intensities derived from the data in (left) and (middle). Buffer: 10 mM Na-phosphate pH7.0, 20 mM NaCl, 7% (v/v) D2O. […] (right) 150 mM MgCl2 was titrated into 15 mM potassium phosphate (Pi). Buffer conditions for all experiments were: 10 mM HEPES pH7.0, 20 mM NaCl.

OEP21 wt [9] = target: T1, OEP21 wt; experiment: NMR titrations (2D-[15N,1H]-TROSY) of OEP21 with metabolites; type: binding, garden pea
OEP21 wt [10] = target: T1, OEP21 wt; experiment: FP competition with preformed MANT-ATP/OEP21-WT complex; type: binding, garden pea; conditions: read-out: IC50 (dissociation of MANT-ATP); OEP21-WT; 1 µM MANT-ATP, 1 µM protein
Method: as §1

With `Cc1cc2nc3c(=O)[nH]c(=O)nc-3n(C[C@H](O)[C@H](O)[C@H](O)COP(=O)(O)OP(=O)(O)OC[C@H]3O[C@@H](n4cnc5c(N)ncnc54)[C@H](O)[C@@H]3O)c2cc1C` [FAD] the “Relative content (% of mean Control)” value (OEP21 wt [1]; Mean) was 46.1734 % of mean Control and the “Relative content (% of mean Control)” value (OEP21 wt [1]; single replicates) was 47.6939 % of mean Control and 45.5112 % of mean Control and 45.315 % of mean Control.

In the case of `Nc1ccn([C@@H]2O[C@H](COP(=O)(O)OP(=O)(O)OP(=O)(O)O)[C@@H](O)[C@H]2O)c(=O)n1` [CTP], the Melting point (OEP21 [2]) is reported as 63.71 ｡C, the “fold increase in Kd” value (OEP21 [3]) is reported as 1.35 and the “fold increase in Kd, mean values” (OEP21 [3]) is reported as 1.35.

With `Nc1ncnc2c1ncn2C1OC(COP(=O)(O)OP(=O)(O)OP(=O)(O)O)C(O)C1O` (centres unmarked) [ATP] the “amide hydrogen exchange rates in L5 in the complex (in words)” value (OEP21 [4]) was “reduced”, the “effect on trypsin digestion of L5 (in words)” value (OEP21 [5]) was “slightly protected L5 from proteolytic digestion” and the “raw CD” value (OEP21 [2]; 21 °C) was -26.3487. For the same compound, the “raw CD” value (OEP21 [2]; 58 °C) was -23.5155, the “raw CD” value (OEP21 [2]; 63 °C) was -19.1017 and the “raw CD” value (OEP21 [2]; 66 °C) was -5.813. The “rel CD” value (OEP21 [2]; 66 °C) was 0.1482, the “rel CD” value (OEP21 [2]; 68 °C) was 0.08235 and the “raw CD” value (OEP21 [2]; 69 °C) was -3.142. For the same compound, the “raw CD” value (OEP21 [2]; 70 °C) was -4.096, the “raw CD” value (OEP21 [2]; 71 °C) was -2.84 and the “raw CD” value (OEP21 [2]; 71.5 °C) was -3.658. The “raw CD” value (OEP21 [2]; 74 °C) was -2.072, the “rel CD” value (OEP21 [2]; 76 °C) was 0.01626 and the “raw CD” value (OEP21 [2]; 77 °C) was -2.742. The “rel CD” value (OEP21 [2]; 77 °C) was 0.01867, the “raw CD” value (OEP21 [2]; 79 °C) was -1.936 and the “raw CD” value (OEP21 [2]; 79.5 °C) was -2.866. The “raw CD” value (OEP21 [2]; 80 °C) was -3, the “raw CD” value (OEP21 [2]; 82 °C) was -1.776 and the “rel CD” value (OEP21 [2]; 82 °C) was -0.02212. For the same compound, the “raw CD” value (OEP21 [2]; 83.5 °C) was -1.529, the “raw CD” value (OEP21 [2]; 84 °C) was -3.442 and the “rel CD” value (OEP21 [2]; 87 °C) was -0.01175. The “rel CD” value (OEP21 [2]; 87.5 °C) was 0.006103, the “rel CD” value (OEP21 [2]; 88 °C) was 0.001624 and the “raw CD” value (OEP21 [2]; 88.5 °C) was -3.139. For the same compound, the “rel CD” value (OEP21 [2]; 90 °C) was -0.0159, the “rel CD” value (OEP21 [2]; 90.5 °C) was -0.01305 and the “rel CD” value (OEP21 [2]; 92 °C) was 0.001685. The “rel CD” value (OEP21 [2]; 93 °C) was -0.01165, the “raw CD” value (OEP21 [2]; 95 °C) was -2.644 and the “rel CD” value (OEP21 [2]; 97 °C) was -0.003556. For the same compound, the “raw CD” value (OEP21 [2]; 98 °C) was -2.053, the “raw CD” value (OEP21 [2]; 100 °C) was -2.629 and the Melting point (OEP21 [2]) was 63.08 ｡C. For the same compound, the “passage through the OEP21 channel (in words)” value (OEP21 wt [1]) was “passed through the channel”, the decrease in affinity (OEP21 wt [6]; 50 mM MgCl2 versus 0) was ~50 fold and the “drop in binding affinity” value (OEP21 wt [6]; 2 M NaCl versus 0) was ~120 fold. The “deviation of KD of OEP21 variants from the wild-type value” [7] was ≤ 50%, the binding stoichiometry n (OEP21 [3]; ITC, Fig. 3a) was 1.14 ± 0.16 and the Kd [8] was 0.05 mM and 0.054 mM.

For `NC(=O)C1=CN([C@@H]2O[C@H](COP(=O)(O)OP(=O)(O)OC[C@H]3O[C@@H](n4cnc5c(N)ncnc54)[C@H](O)[C@@H]3O)[C@@H](O)[C@H]2O)C=CC1` [NADH], the Melting point (OEP21 [2]) was 58.83 ｡C, the “Relative content (% of mean Control)” value (OEP21 wt [1]; Mean) was 33.6575 % of mean Control and the “Relative content (% of mean Control)” value (OEP21 wt [1]; single replicates) was 33.3345 % of mean Control and 33.6928 % of mean Control and 33.9453 % of mean Control.

For `O=P(O)(O)O` [Phosphate], the Kd (OEP21 wt [9]; individual determinations KD1-KD12, read-out: Kd) was 8.73 mM and 3.66 mM and 15 mM and 9.02 mM and 8.71 mM and 10.4 mM and 5.02 mM and 3.5 mM and 11 mM and 15.9 mM and 20.7 mM and 4.68 mM, the Kd (OEP21 wt [9]; mean, read-out: Kd, mean values) was 9.7 mM and the IC50 (OEP21 wt [10]) was ~10 mM. For the same compound, the “Relative content (% of mean Control)” value (OEP21 wt [1]; Mean) was 13.1637 % of mean Control, the “Relative content (% of mean Control)” value (OEP21 wt [1]; single replicates) was 11.8165 % of mean Control and 12.9577 % of mean Control and 14.7171 % of mean Control and the Kd ([8]; listed as Pi) was 9 ± 1 mM. For the same compound, the Kd [8] was ~9 mM.

With `O=S1(=O)OC(c2cc(Br)c(O)c(Br)c2)(c2cc(Br)c(O)c(Br)c2)c2ccccc21` [Bromophenol Blue, reference compound] the “Relative content (% of mean Control)” value (OEP21 wt [1]; Mean) was 44.3038 % of mean Control, the “Relative content (% of mean Control)” value (OEP21 wt [1]; single replicates) was 45.5696 % of mean Control and 43.6709 % of mean Control (2×) and the “passage through the OEP21 channel (in words)” value (OEP21 wt [1]) was “lower translocation efficiency”.

With `O=C(O)[C@H](O)COP(=O)(O)O` [3PGA] the Melting point (OEP21 [2]) was 58.78 ｡C.

In the case of `C=C(OP(=O)(O)O)C(=O)O` [PEP], the Melting point (OEP21 [2]) is reported as 58.37 ｡C.

With `O=c1ccn([C@@H]2O[C@H](COP(=O)(O)OP(=O)(O)OP(=O)(O)O)[C@@H](O)[C@H]2O)c(=O)[nH]1` [UTP] the Melting point (OEP21 [2]) was 63.58 ｡C, the “fold increase in Kd” value (OEP21 [3]) was 2.55 and the “fold increase in Kd, mean values” (OEP21 [3]) was 2.55.

With `NC(=O)C1=CN([C@@H]2O[C@H](COP(=O)(O)OP(=O)(O)OC[C@H]3O[C@@H](n4cnc5c(N)ncnc54)[C@H](OP(=O)(O)O)[C@@H]3O)[C@@H](O)[C@H]2O)C=CC1` [NADPH] the Melting point (OEP21 [2]) was 60.17 ｡C, the “Relative content (% of mean Control)” value (OEP21 wt [1]; Mean) was 30.937 % of mean Control and the “Relative content (% of mean Control)” value (OEP21 wt [1]; single replicates) was 31.31 % of mean Control and 32.4982 % of mean Control and 29.0027 % of mean Control.

For Vitamin B12, the “Relative content (% of mean Control)” value (OEP21 wt [1]; Mean) was 99.2057 % of mean Control, the “Relative content (% of mean Control)” value (OEP21 wt [1]; single replicates) was 105.56 % of mean Control and 96.0286 % of mean Control (2×) and the “passage through the OEP21 channel (in words)” value (OEP21 wt [1]) was “cannot pass”.

With `Nc1ncnc2c1ncn2[C@@H]1O[C@H](COP(=O)(O)O)[C@@H](O)[C@H]1O` [AMP] the Melting point (OEP21 [2]) was 59.12 ｡C, the “binding affinity for OEP21 (in words)” value (OEP21 [3]; Fig. 3c) was “no binding could be detected” and the “Fold increase in KD” value (OEP21 [3]; Fig. 3c, n.b. = no binding could be detected by ITC) was “n.b”. The “fold increase in Kd, mean values” (OEP21 [3]) was 0.

With `Nc1ncnc2c1ncn2[C@@H]1O[C@H](COP(=O)(O)OP(=O)(O)O)[C@@H](O)[C@H]1O` [ADP] the Melting point (OEP21 [2]) was 59.2 ｡C, the “binding affinity for OEP21 (in words)” value (OEP21 [3]; Fig. 3c) was “markedly reduced” and the “fold increase in Kd” value (OEP21 [3]) was 10.8. For the same compound, the “fold increase in Kd, mean values” (OEP21 [3]) was 10.8.

For `Nc1nc2c(ncn2[C@@H]2O[C@H](COP(=O)(O)OP(=O)(O)OP(=O)(O)O)[C@@H](O)[C@H]2O)c(=O)[nH]1` [GTP], the Melting point (OEP21 [2]) was 66.48 ｡C, the “fold increase in Kd” value (OEP21 [3]) was 0.59 and the “fold increase in Kd, mean values” (OEP21 [3]) was 0.59.

With “lysozyme: the ~14-kDa protein lysozyme [reference compound]” the “passage through the OEP21 channel (in words)” value (OEP21 wt [1]) was “cannot pass”.
